Measured values reported in patent publication US12534425B2, “Phenalkylamines and methods of treating mood disorders” (GILGAMESH PHARMACEUTICALS, INC., priority 2020, dated 2026).

Columns and labels:
5-HT2A receptor [1] = target: T1, 5-HT2A receptor (Homo sapiens (Human), UniProt P28223); assay: 5-HT2A receptor radioligand binding ([3H]ketanserin); conditions: for Ki: 1 nM [3H]ketanserin, HEK293 stable cell line
Description: Methods. Affinity of the test compounds for the 5-HT2A receptor was determined in radioligand binding experiments with [^3H]ketanserin by WuXi AppTec (Hong Kong) Limited, using methods adapted from the literature and under conditions described in Table 2.

[2] = Metabolic stability in cynomolgus monkey liver microsomes (CLM); conditions: male, pooled liver microsomes, pH 7.4
5-HT1A receptor = 5-HT1A receptor (Homo sapiens (Human), UniProt P08908); assay: FLIPR Ca2+ flux agonist assay at 5-HT1A; format: cell-based
Description: (§1) The functional activity of Compound 1 at several serotonin (5-HT) receptor subtypes (5-HT2A, 5-HT2B, and 5-HT1A) was determined in Ca^2+ flux assays, with the results summarized in Table 3.
(§2) Functional Assays at 5-HT2A, 5-HT2B, and 5-HT1A Receptors. Agonist activity at 5-HT2A, 5-HT2B, and 5-HT1A receptors was determined using a FLIPR Ca^2+ flux assay at WuXi AppTec (Hong Kong) Limited according to their standard protocols. Briefly, stably transfected cells expressing the receptor of interest (HEK293 for 5-HT2A and 5-HT2B; CHO cells for 5-HT1A) were grown and plated in a 384 well plate and incubated at 37° C. and 5% CO2 overnight. A solution of 250 mM probenecid in 1 mL FLIPR assay buffer was prepared fresh. This was combined with a fluorescent dye (Fluo-4 Direct™) to make a final assay concentration of 2.5 mM. Compounds were diluted 1:3.16 for 10 points and 750 nL was added to a 384 well compound plate using ECHO along with 30 μL assay buffer. The fluorescent dye was then added to the assay plate along with assay buffer to a final volume of 40 μL. The cell plate was incubated for 50 min at 37° C. and 5% CO2 and placed into the FLIPR Tetra along with the compound plate. 10 μL of references and compounds were then transferred from the compound plate into the cell plate and the fluorescent signal was read.

C57BL/6 mice = assay: Head twitch response (HTR) in mice; format: in vivo; conditions: for Average HTR (SEM): counted for 20 min; for ED50: Mus musculus, sc, Gaussian dose-response fit, read-out: HTR ED50 (95% CI); for maximal HTR effect: s.c., maximal effect over doses
Description: Animals. Adult male C57BL/6 mice, aged 8 weeks (body weight 20-25 g) were used in these experiments. Animals were housed under controlled temperatures and 12-hour light/dark cycles (lights on between 07:00-19:00 h), with ad libitum food and water. All efforts were made to minimize suffering.
Drugs and Drug Administration. Compound 1 was synthesized as described above. […] All compounds were used as the HCl salts, dissolved in a vehicle consisting of normal saline, and administered subcutaneously (s.c.) in a volume of 10 mL/kg. […] Group size was N=6 animals/group.
Procedure. Mice were administered one dose of a test drug (or vehicle) s.c. and immediately placed into a small open field for behavioral observation.
Statistical Analysis. The data points shown in Table 4 are the mean±standard error of the mean (SEM). Dose-response curves were fit and ED50s calculated using the Gaussian 2020 function in GraphPad Prism 9.

5-HT2B receptor = 5-HT2B receptor (Homo sapiens (Human), UniProt P41595); assay: FLIPR Ca2+ flux agonist assay at 5-HT2B; format: cell-based
Description: as §1, §2

5-HT2A receptor [3] = target: T1, 5-HT2A receptor; assay: FLIPR Ca2+ flux agonist assay at 5-HT2A; format: cell-based
Description: as §1, §2

[4] = Ca2+ flux, HEK293 cells, max dose

Sequence of 5-HT2B receptor (P41595 whole entry): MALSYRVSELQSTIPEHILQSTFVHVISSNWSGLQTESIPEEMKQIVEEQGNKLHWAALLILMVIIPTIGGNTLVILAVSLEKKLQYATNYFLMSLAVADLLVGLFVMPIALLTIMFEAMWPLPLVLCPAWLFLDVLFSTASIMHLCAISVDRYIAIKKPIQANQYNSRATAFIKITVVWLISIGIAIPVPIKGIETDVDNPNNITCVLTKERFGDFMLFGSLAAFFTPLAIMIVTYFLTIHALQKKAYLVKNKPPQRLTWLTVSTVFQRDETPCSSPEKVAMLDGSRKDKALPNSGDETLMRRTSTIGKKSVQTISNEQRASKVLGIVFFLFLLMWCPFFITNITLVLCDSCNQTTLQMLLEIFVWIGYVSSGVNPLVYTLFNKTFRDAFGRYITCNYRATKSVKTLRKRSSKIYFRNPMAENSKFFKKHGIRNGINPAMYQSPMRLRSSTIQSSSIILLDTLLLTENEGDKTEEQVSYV

| SMILES | Ki (5-HT2A receptor [1]) | half-life at 1 μM [2] | microsomal CLint at 1 μM [2] | binding affinity at the 5-HT2A receptor (in words) (5-HT2A receptor [1]; compared to closely related compounds) | EC50 (5-HT1A receptor) | 5-HT1A % Act @ Max Dose (5-HT1A receptor; Ca2+ flux, CHO cells, max dose) | Average HTR (SEM) (C57BL/6 mice; 0.1 mg/kg s.c.) | Average HTR (SEM) (C57BL/6 mice; 0.316 mg/kg s.c.) | Average HTR (SEM) (C57BL/6 mice; 1 mg/kg s.c.) | Average HTR (SEM) (C57BL/6 mice; 3.16 mg/kg s.c.) | Average HTR (SEM) (C57BL/6 mice; 10 mg/kg s.c.) | ED50 (C57BL/6 mice) | maximal HTR effect (C57BL/6 mice) | EC50 (5-HT2B receptor) | 5-HT2B % Act @ Max Dose (5-HT2B receptor; [4]) | EC50 (5-HT2A receptor [3]) | selectivity among 5-HT receptors (in words) (5-HT2A receptor [3]; 5-HT2A over 5-HT2B and 5-HT1A, Ca2+ flux) | agonist activity at the 5-HT2A receptor (in words) (5-HT2A receptor [3]; Ca2+ flux) | 5-HT2A % Act @ Max Dose (5-HT2A receptor [3]; [4]) | Average HTR (SEM) (C57BL/6 mice; 31.6 mg/kg s.c.) |
| --- | --- | --- | --- | --- | --- | --- | --- | --- | --- | --- | --- | --- | --- | --- | --- | --- | --- | --- | --- | --- |
| CCc1cc(OC)c(CCN)cc1OC [Compound 2C-E] | 16.7 nM | 1.31 h | 17.6 µL/min/mg | – | – | – | – | – | – | – | – | – | – | – | – | – | – | – | – | – |
| C=CCc1cc(OC)c(CCN)cc1OC [Compound 1, 2-(4-allyl-2,5-dimethoxyphenyl)ethan-1-amine] | 90.4 nM | 0.705 h | 32.8 µL/min/mg | reduced binding affinity | > 100000 nM | 13.25% | 8.8 (0.79) | 13.3 (0.49) | 23.0 (1.21) | 28.8 (1.58) | 24.3 (2.04) | 0.28 mg/kg | 28.8 head twitches/20 min | 77.7 nM | 74.87% | 2.15 nM | selective for the 5-HT2A receptor over the 5-HT2B and 5-HT1A receptors | potent and highly efficacious agonist | 110.99% | – |
| COc1cc(CCN)c(OC)cc1Br [Compound 2C-B] | – | 1.25 h | 18.4 µL/min/mg | – | – | – | – | – | – | – | – | – | – | – | – | – | – | – | – | – |
| COc1cc(CC(C)N)c(OC)cc1I (stereo not drawn) [DOI, 4-iodo-2,5-dimethoxyamphetamine] | – | – | – | – | – | – | 5.5 (0.85) | 13.0 (2.07) | 29.3 (2.29) | 35.6 (3.37) | 22.7 (1.52) | 0.43 mg/kg | 35.6 head twitches/20 min | – | – | – | – | – | – | – |
| COc1cc(C(F)(F)F)c(OC)cc1CCN [Compound 2C-TFM, 2,5-dimethoxy-4-(trifluoromethyl)phenethylamine] | 15.8 nM | – | – | – | – | – | – | 6.5 (0.89) | 19.2 (2.47) | 19.2 (2.37) | 17.2 (1.62) | 0.43 mg/kg | 19.2 head twitches/20 min | – | – | – | – | – | – | 9.3 (1.12) |
